Results as given in PubChem BioAssay (NCI).
Where “and” joins values, the source holds several entries; their conditions need not be identical. Equal values may be shown once.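 Method: 48-hour compound exposure of cells in 96-well plates, five concentrations, linear interpolation of endpoints. The concentration for 50% growth inhibition is given as GI50. Definition used: TGI = concentration required for complete inhibition of growth.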

How the values were obtained:
Test in all cases: inhibition of tumour cell growth, NCI panel, 48 h
DU-145 prostate = test system: DU-145 prostate
HS 578T breast = test system: HS 578T breast
NCI-H460 lung = test system: NCI-H460 lung
SF-295 CNS = test system: SF-295 CNS
SF-539 CNS = test system: SF-539 CNS
SW-620 colon = test system: SW-620 colon
UO-31 renal = test system: UO-31 renal

Compound | GI50 (DU-145 prostate) | TGI (DU-145 prostate) | GI50 (HS 578T breast) | TGI (HS 578T breast) | GI50 (NCI-H460 lung) | TGI (NCI-H460 lung) | GI50 (SF-295 CNS) | TGI (SF-295 CNS) | GI50 (SF-539 CNS) | TGI (SF-539 CNS) | GI50 (SW-620 colon) | TGI (SW-620 colon) | GI50 (UO-31 renal) | TGI (UO-31 renal)
CCN1C(=O)N(CC)C2C1NC(=S)N2/N=C/C=C/c1ccccc1 (centres undefined) | 0.377 µM | > 100 µM | 0.0824 µM | > 100 µM | 0.176 µM | > 100 µM | 0.0666 µM | > 100 µM | 0.0633 µM | 0.871 µM | 0.0726 µM | > 100 µM | 0.192 µM | > 86.6 µM
Oc1cn(-c2ccc(Cl)cc2)nc1-c1n[nH]c(=S)n1-c1ccc(F)cc1 | 22 µM | > 100 µM | 29.1 µM | > 100 µM | 11.9 µM | 40.8 µM | 14.8 µM | 66.9 µM | 15.1 µM | 34.9 µM | 22.8 µM | 78.3 µM | 25 µM | > 100 µM
C/C(=C/CCC(C)[C@@H]1CC[C@]2(C)C3=C(CC[C@@]12C)[C@@]1(C)CCC(=O)C(C)(C)[C@@H]1CC3)C(=O)O (some centres undefined) | 1.2 µM | 2.56 µM | 1.45 µM | 3.4 µM | 1.28 µM | 4.02 µM | 0.506 µM | 2.02 µM | 1.37 µM | 2.93 µM | 1.39 µM | 3.41 µM | 1.08 µM | 2.44 µM
CC(=O)Nc1cccc(C#Cc2cncnc2Nc2ccc(OCc3cccc(F)c3)c(Cl)c2)c1 | 10 µM | > 25 µM | 10.2 µM | > 25 µM | 8.94 µM | > 25 µM | 6.47 µM | > 25 µM | 14.9 µM | > 25 µM | 17.9 µM | > 25 µM | 3.55 µM | > 25 µM
O=C(Nc1nc2ccc(S(=O)(=O)Nc3ccc(C4(C(F)(F)F)CC4)cc3)cc2[nH]1)c1cnccn1 | 2.88 µM | 13.2 µM | 2.57 µM | 13.5 µM | 1.07 µM | 12.2 µM | 0.506 µM | 10.3 µM | 2.35 µM | 10.4 µM | 1.71 µM | 15.3 µM | 3.02 µM | 13.9 µM
Nc1c(C(=O)Nc2ccccc2)sc2nc3c(cc12)C(=O)CCC3 | 0.328 µM | 19.9 µM | 0.524 µM | > 72.4 µM | 0.346 µM |  | 0.435 µM | > 100 µM | 0.384 µM | > 26.1 µM | 0.333 µM | > 100 µM | > 27.3 µM | > 100 µM
OCC1OC(OC2(CO)OC(CO)C(O)C2O)C(O)C(O)C1O (centres undefined) | > 100 µM | > 100 µM |  |  | > 100 µM | > 100 µM | > 100 µM | > 100 µM | > 100 µM | > 100 µM | > 100 µM | > 100 µM | > 100 µM | > 100 µM
Nc1nc(-c2ccccc2)c(CC(=O)O)s1 |  | > 100 µM |  | > 100 µM |  | > 100 µM |  | > 100 µM |  | > 100 µM |  | > 100 µM |  | > 100 µM
N#CN1CC[C@H](C(=O)Nc2ncc(-c3ccccc3)s2)C1 | 0.814 µM | 2.04 µM | 0.811 µM | 5.05 µM | 0.423 µM | 2.47 µM | 1.22 µM | 6.44 µM | 0.294 µM | 1.38 µM | 0.313 µM | 14.4 µM | 0.549 µM | 5.36 µM
CN(C)CCNC(=O)Nc1ccc(N(C)c2ccnc(Nc3ccc(CS(C)(=O)=O)cc3)n2)cc1 | > 25 µM | > 25 µM | > 19.8 µM | > 25 µM | > 25 µM | > 25 µM | > 25 µM | > 25 µM | > 20.9 µM | > 25 µM | > 25 µM | > 25 µM | > 25 µM | > 25 µM
CCOC(=O)c1cn(C)c2c(OC)c3ccccc3c(OC)c2c1=O | 63 µM | > 100 µM | 23.6 µM | 63.8 µM | 32.1 µM | > 100 µM | 21.4 µM | 55.2 µM | 34 µM | > 100 µM |  |  | > 100 µM | > 100 µM
OCCNc1nc2ccccc2c2[nH]c3ccccc3c12 | 0.659 µM | 12.5 µM | 0.71 µM | 4.57 µM | 0.305 µM | 1.24 µM | 0.314 µM | 2.42 µM | 0.615 µM | 3.68 µM | 0.325 µM | 2.26 µM | 0.297 µM | 1.37 µM
O=c1[nH]c(=S)[nH]c(O)c1/C=C1\C=Nc2ccccc21 | 10.3 µM | 35.4 µM | 1.95 µM | 6.19 µM | 4.07 µM | 18.5 µM | 1.81 µM | 6.84 µM | 3.11 µM | 9.87 µM | 1.83 µM | 3.78 µM |  | 
Cn1cc(-c2ccc3ncc(-c4ccc(CC(=O)Nc5cc(C(C)(C)C)nn5C)cc4)cc3c2)cn1 | 1.1 µM | > 20 µM | 0.798 µM | > 20 µM | 0.786 µM | > 20 µM | 1.58 µM | > 20 µM | 2.22 µM | > 20 µM | 1.67 µM | > 20 µM | 0.331 µM | 2.08 µM
O=C(CI)NC(=O)NC(=O)NCc1ccccc1 |  |  | 20.9 µM | 72.4 µM | 5.3 µM | 23.4 µM | 14.1 µM | 31.9 µM | 1.92 µM | 4 µM | 1.77 µM | 3.78 µM | 1.66 µM | 3.31 µM
NC(=O)c1nc(-c2c(F)cccc2Cl)oc1Nc1ccc(C(=O)N2CCOCC2)cc1 | 11.9 µM | > 100 µM |  |  | 0.805 µM | > 100 µM | 1.61 µM | > 100 µM | 1.32 µM | 5.16 µM | 0.703 µM | > 100 µM | 1.2 µM | 25.8 µM
CN(C)C1C(=O)C(C(N)=O)=C(O)C2(O)C(=O)C3=C(O)c4c(O)cccc4C(C)(O)C3CC12.[Cl][Sb]([Cl])[Cl] (centres undefined) | 4.33 µM | 14.9 µM | 3 µM | > 100 µM | 3.27 µM | 12.3 µM |  |  |  |  | 4.01 µM | 16.5 µM | 2.62 µM | 16.1 µM
Cc1cc(OC2OC(CO)C(O)C(O)C2O)ccc1O (centres undefined) |  |  |  | > 100 µM |  | > 100 µM |  | > 100 µM |  | > 100 µM |  | > 100 µM |  | > 100 µM
Cc1ccc2ccc3c4ccccc4ccc3c2c1 | 34.6 µM | > 100 µM | 27.7 µM | > 100 µM | 26.3 µM | 76 µM |  |  | 47.7 µM | > 100 µM | 25.9 µM | > 100 µM | 23.3 µM | > 100 µM
CCOC(=O)c1cc(C(=O)c2ccc(OC)c(OC)c2)n2c1ccc1ccc3cccnc3c12 | 3.45 µM | > 100 µM | 3.04 µM | > 100 µM | 1.58 µM | > 100 µM |  |  |  |  | 0.93 µM | > 100 µM | 0.891 µM | > 100 µM
COc1cc2c(c3c1c(=O)c1ccccc1n3C)C=C([N+](=O)[O-])C(C)(C)O2 |  | > 100 µM |  | > 100 µM |  | 0.108 µM |  | > 100 µM |  | > 100 µM |  |  |  | > 100 µM
O=C1c2cccc3c(N4CCOCC4)ccc(c23)C(=O)N1CCN1CCN(CCCCCN2CCN(CCN3C(=O)c4cccc5c(N6CCOCC6)ccc(c45)C3=O)CC2)CC1 | > 100 µM | > 100 µM | > 100 µM | > 100 µM | > 100 µM | > 100 µM | 72 µM | > 100 µM | > 100 µM | > 100 µM | 70.8 µM | > 100 µM |  | 
CCN(CC)CCCC(Nc1c2ccc(Cl)cc2nc2ccc(OC)cc12)c1ccc(Cl)cc1 (centres undefined) | 1.52 µM | 3.03 µM |  |  | 1.33 µM | 2.88 µM | 1.3 µM | 2.77 µM | 1.56 µM | 3.1 µM | 1.37 µM | 2.99 µM | 1.58 µM | 3.08 µM
COc1cc([C@@H]2c3cc4c(cc3[C@H](SC(=N)N)[C@H]3COC(=O)[C@H]23)OCO4)cc(OC)c1OC |  |  | 0.264 µM | > 100 µM | 0.294 µM | 56.1 µM | 0.0369 µM | 0.19 µM | 0.144 µM | > 100 µM | 0.265 µM | > 100 µM | 2.6 µM | > 71.2 µM
CO[C@H]1C(=O)[C@]2(C)[C@@H](OC)C[C@H]3OC[C@@]3(OC(C)=O)[C@H]2[C@H](OC(=O)c2ccccc2)[C@]2(O)C[C@H](OC(=O)[C@H](O)[C@@H](NC(=O)OC(C)(C)C)c3ccccc3)C(C)=C1C2(C)C | < 0.01 µM | < 0.01 µM |  |  | < 0.01 µM | 13 µM | < 0.01 µM | 23.9 µM |  |  | < 0.01 µM | > 100 µM | < 0.01 µM | 54.3 µM
Cc1ccccc1Nc1cc(O)c2c(=O)cc(-c3ccccc3)oc2c1 | 3.78 µM | > 100 µM |  |  | 2.89 µM | > 100 µM | 2.36 µM | > 100 µM | 3.1 µM | > 100 µM | 0.734 µM | > 100 µM |  | 
COc1cccc(-c2cc(=O)c3cc(N4CCN(C)CC4)ccc3[nH]2)c1 |  |  |  | 4.88 µM |  | > 100 µM | 8.34 µM |  | 1.5 µM | 2.36 µM and 7.13 µM | 0.755 µM | > 100 µM |  | > 100 µM
